The record followed here is paper PMC9131871, “Impact of Micropolymorphism Outside the Peptide Binding Groove in the Clinically Relevant Allele HLA-C*14 on T Cell Responses in HIV-1 Infection” (Journal of Virology, 2022).

For the test, the target named is HLA-C*14:03 (Homo sapiens, UniProt P10321, A176E/A330V/A35S/A97T/C350S/D114A/D33S/L171W/L180R/L218V/M285V/M309V/M331V/P208H/Q277E/Q291P/R121W/R243W/R45H/S123F/S297R/S48A/T329A/T363A/V319A). The experiment in a line: LC-MS/MS identification of HLA-bound HIV-1 peptides from NL4-3-infected .221-C1403 cells. Further details: key: ●: Closed circles indicate the peptide which was identified in HLA-C*1402 or/and -C*1403 expressing cells. The note with it: HIV-1 NL4-3-infected .221-C1403 cells, W6/32 immunoprecipitation, two independent replicate experiments. The class given is binding. The protocol: 721.221 cells expressing CD4 and HLA-C*14:02 (.221-C1402) or HLA-C*14:03 (.221-C1403) were infected with the laboratory-adapted NL4-3 HIV-1 strain. HLA-peptide complexes were isolated from cell lysates by immunoprecipitation with the anti-HLA class I antibody W6/32; then, peptides were eluted, fractionated by high-performance liquid chromatography (HPLC), and finally analyzed by LC-MS/MS. Two independent replicate experiments were performed, in which a total of 7,970 and 8,447 unique 8- to 13-mer peptide sequences were identified from .221-C1402 and .221-C1403 cells, respectively (Fig. 1A). Of these peptides, 6,163 were identified in both the C*14:02- and C*14:03-bound peptide data sets, while other peptides were detected in the acid-eluted fraction from only a single allele. […] These motifs are consistent with the HLA-C*1402/03 peptide motifs previously estimated using reported epitopes ([29]).
.221-C1402 and .221-C1403 cells were infected with HIV-1 NL4-3 in a low volume of RPMI 1640 medium (Thermo Fisher) containing 10% fetal bovine serum (FBS), 2 mM L-glutamine, 100 U/mL penicillin, 100 μg/mL streptomycin, and 10 mM HEPES (R10). Fifty microliters of NL4-3 stock virus (Reverse transcriptase activity (RT) value = 4 × 10^2 ng/mL) was added to 8 × 10^6 .221-C1402 cells or .221-C1403, and the cells were then incubated for 1.5 h at 37°C, after which 20 mL of R10 was added and the cells were cultured overnight. At day 1 postinfection, a further 20 mL R10 was added, and cells were split (1:2) on day 2. On day 3 postinfection, the proportion of cells infected with HIV-1 was determined by intracellular p24 staining, as previously described ([46]). Infected flasks were then harvested for immunoprecipitation of HLA-peptide complexes.
.221-C1402 cells or .221-C1403 cells infected with NL4-3 (1.5 × 10^8 to 2 × 10^8 cells) were harvested, washed in phosphate-buffered saline (PBS), and lysed in 5 mL of lysis buffer (1% IGEPAL 630, 300 mM NaCl, 100 mM Tris [pH 8.0], plus protease inhibitors) at 4°C for 45 min. Two centrifugation steps (2,000 × g for 10 min followed by 20,000 × g for 30 min at 4°C) were next employed to clear the lysates of cell debris prior to overnight capture of HLA-peptide complexes on W6/32-coated protein A‐Sepharose beads. W6/32-bound HLA-peptide complexes were sequentially washed with 10 to 20 mL of wash buffer 1 (0.005% IGEPAL, 50 mM Tris [pH 8.0], 150 mM NaCl, 5 mM EDTA), wash buffer 2 (50 mM Tris [pH 8.0], 150 mM NaCl), wash buffer 3 (50 mM Tris [pH 8.0], 400 mM NaCl), and finally wash buffer 4 (50 mM Tris [pH 8.0]) under gravity flow in Econo-Column glass chromatography columns (Bio-Rad). Peptide-HLA complexes were eluted from the beads with 5 mL of 10% acetic acid and, after drying under vacuum, were loaded onto a 4.6- by 50-mm ProSwift RP-1S column (Thermo Fisher Scientific) and eluted from an Ultimate 3000 HPLC system (Thermo Scientific) using a 500-μL/min flow rate over 10 min from 2% to 34% buffer B (0.1% trifluoroacetic acid [TFA] in acetonitrile) in buffer A (0.1% TFA in water). Alternate fractions were pooled to give two final peptide fractions that were dried for LC-MS/MS analysis.
Each HPLC-eluted sample was resuspended in 20 μL loading buffer, and 9 μL of it was injected onto a 3-μm-particle-size 0.075-mm by 150-mm Acclaim PepMap RSLC C18 column and further loaded onto a 2-μm-particle-size, 75-μm by 50-cm Acclaim PepMap RSLC C18 column using an Ultimate 3000 nUPLC system (Thermo Scientific). A linear gradient of 3 to 25% buffer B (0.1% formic acid, 5% dimethyl sulfoxide [DMSO] in acetonitrile) in buffer A (0.1% formic acid, 5% DMSO in water) was applied over 1 h to elute peptides from the column (flow rate of […]). Peptides were introduced, using an Easy-Spray source at 2,000 V at 40°C, into a Fusion Lumos mass spectrometer (Thermo Scientific). The ion transfer tube temperature was set to 305°C. […]
Regarding AFHHVAREL [Nef AL9], the “C1403: peptide identified by LC-MS/MS in HLA-I eluate” value (shortened to “C1403: peptide identified by LC-MS/MS”) was “●”.
Under “ASGYIEAEV [Pol AV9, HIV-1 NL4-3 Pol 795–803 peptide …]” stands “●”; under “FFREDLAF [Pol FF8, HIV-1 NL4-3 Pol 1–8 peptide FFREDLAF]”, “●”; under “FLGAAGSTM [Env FM9, HIV-1 NL4-3 Env 522–530 peptide …]”, “●”.
Under “FMTKALGI [Tat FI8, HIV-1 NL4-3 Tat 38–45 peptide FMTKALGI]” stands “●”; under IYHTQGYF [Nef IF8], “●”; under KYHSNWRAM [Pol KM9], “●”.
Under LYNTIAVLY [Gag LY9] stands “●”; under “RFDSRLAF [Nef RF8, HIV-1 NL4-3 Nef 184–191 peptide RFDSRLAF]”, “●”.
“VYYDPSKDL [Pol VYL9, HIV-1 NL4-3 Pol 472–480 peptide …]”: the “C1403: peptide identified by LC-MS/MS” value was “●”.
Consider YFPDWQNYT [Nef YT9], for which the “C1403: peptide identified by LC-MS/MS” value is on record as “●”.
